The record followed here is ChEMBL document CHEMBL1151767, “Lipidyl pseudopteranes A-F: isolation, biomimetic synthesis, and PTP1B inhibitory activity of a new class of pseudopteranoids from the Gorgonian Pseudopterogorgia acerosa” (J Nat Prod, 2008).

Test [1] has as its target T1, Tyrosine-protein phosphatase non-receptor type 1 (Homo sapiens) (UniProt P18031).
T1 sequence (whole entry): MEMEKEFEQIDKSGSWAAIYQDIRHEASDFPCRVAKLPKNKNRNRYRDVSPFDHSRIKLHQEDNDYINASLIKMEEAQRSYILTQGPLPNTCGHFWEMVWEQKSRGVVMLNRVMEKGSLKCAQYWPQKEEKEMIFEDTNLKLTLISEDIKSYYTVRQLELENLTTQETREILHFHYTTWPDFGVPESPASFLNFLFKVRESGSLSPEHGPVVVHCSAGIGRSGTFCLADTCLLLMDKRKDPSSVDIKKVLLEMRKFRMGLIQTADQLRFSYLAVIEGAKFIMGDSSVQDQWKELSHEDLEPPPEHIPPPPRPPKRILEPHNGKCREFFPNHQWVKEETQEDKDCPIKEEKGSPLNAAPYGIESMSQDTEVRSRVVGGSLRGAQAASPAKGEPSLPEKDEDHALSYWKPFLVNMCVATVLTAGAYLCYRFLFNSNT
The experiment in a line: Inhibition of GST-tagged PTP1B at 100 ug/mL.

The target in test [2] is Receptor-type tyrosine-protein phosphatase F (Homo sapiens) (UniProt P10586). The experiment in a line: Inhibition of GST-tagged PTP LAR at 100 ug/mL.
Sequence of Receptor-type tyrosine-protein phosphatase F (Homo sapiens) (P10586 whole entry): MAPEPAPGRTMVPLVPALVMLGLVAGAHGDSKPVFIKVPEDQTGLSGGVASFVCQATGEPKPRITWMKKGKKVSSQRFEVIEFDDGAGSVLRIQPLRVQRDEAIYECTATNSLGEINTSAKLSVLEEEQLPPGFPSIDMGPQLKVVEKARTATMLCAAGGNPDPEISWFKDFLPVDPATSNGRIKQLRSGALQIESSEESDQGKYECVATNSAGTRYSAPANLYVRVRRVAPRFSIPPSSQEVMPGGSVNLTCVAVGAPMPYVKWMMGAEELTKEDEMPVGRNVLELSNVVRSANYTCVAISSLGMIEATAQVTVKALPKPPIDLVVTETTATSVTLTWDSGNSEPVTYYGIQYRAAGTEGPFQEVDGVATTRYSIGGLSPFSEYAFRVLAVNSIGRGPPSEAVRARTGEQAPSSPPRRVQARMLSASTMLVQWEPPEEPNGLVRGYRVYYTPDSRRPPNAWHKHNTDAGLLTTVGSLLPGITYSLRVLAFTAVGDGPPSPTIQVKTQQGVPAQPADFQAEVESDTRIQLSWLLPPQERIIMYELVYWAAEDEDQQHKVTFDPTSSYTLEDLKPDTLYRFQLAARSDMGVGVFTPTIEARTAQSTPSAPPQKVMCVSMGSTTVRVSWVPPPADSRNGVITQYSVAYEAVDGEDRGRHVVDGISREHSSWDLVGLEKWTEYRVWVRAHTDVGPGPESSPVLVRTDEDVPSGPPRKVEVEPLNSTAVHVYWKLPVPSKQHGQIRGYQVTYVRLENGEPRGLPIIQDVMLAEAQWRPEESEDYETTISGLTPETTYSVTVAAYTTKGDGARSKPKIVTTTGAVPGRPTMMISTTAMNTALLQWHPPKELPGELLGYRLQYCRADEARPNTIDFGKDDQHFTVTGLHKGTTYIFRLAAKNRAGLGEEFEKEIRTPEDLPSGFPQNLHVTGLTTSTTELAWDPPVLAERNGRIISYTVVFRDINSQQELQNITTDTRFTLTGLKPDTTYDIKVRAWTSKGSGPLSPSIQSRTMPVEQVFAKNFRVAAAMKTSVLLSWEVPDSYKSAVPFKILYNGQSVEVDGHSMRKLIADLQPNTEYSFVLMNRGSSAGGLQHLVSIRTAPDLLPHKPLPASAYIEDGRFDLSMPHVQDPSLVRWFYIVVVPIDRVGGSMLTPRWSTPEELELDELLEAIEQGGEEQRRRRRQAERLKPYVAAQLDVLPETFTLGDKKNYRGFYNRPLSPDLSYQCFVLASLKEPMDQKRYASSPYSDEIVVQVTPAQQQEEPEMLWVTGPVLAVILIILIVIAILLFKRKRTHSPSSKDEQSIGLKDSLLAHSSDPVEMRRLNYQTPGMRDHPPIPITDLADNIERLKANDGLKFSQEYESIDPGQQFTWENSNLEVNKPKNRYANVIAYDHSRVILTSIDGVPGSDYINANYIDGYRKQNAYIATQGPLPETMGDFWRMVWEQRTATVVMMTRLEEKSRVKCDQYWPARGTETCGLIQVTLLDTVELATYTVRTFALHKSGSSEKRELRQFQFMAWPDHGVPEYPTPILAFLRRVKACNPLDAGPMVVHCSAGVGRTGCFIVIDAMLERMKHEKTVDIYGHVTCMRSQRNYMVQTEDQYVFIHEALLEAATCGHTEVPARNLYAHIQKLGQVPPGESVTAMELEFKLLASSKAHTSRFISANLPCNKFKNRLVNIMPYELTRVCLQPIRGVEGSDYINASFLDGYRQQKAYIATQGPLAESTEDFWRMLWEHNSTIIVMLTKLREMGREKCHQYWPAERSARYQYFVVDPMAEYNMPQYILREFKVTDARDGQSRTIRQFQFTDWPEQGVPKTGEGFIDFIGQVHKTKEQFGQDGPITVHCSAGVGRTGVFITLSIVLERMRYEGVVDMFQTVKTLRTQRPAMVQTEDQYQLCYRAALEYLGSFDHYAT
Test [3] has as its target T2, Dual specificity protein phosphatase 22 (Homo sapiens) (UniProt Q9NRW4).
T2 sequence (whole entry): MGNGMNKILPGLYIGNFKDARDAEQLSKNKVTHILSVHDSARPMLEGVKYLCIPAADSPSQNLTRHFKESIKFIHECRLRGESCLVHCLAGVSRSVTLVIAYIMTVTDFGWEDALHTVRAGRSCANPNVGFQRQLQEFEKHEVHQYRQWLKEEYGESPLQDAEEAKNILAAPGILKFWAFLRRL
The experiment in a line: Inhibition of GST-tagged PTP MKPX at 100 ug/mL.

Test [4] concerns the target Tyrosine-protein phosphatase non-receptor type 6 (Homo sapiens) (UniProt P29350). In words: Inhibition of GST-tagged PTP SHP1 at 100 ug/mL.
For test [5], the target named is T3, Tyrosine-protein phosphatase non-receptor type 1 (Homo sapiens, UniProt P18031).
T3 sequence (P18031 whole entry): T1 sequence (whole entry)
In words: Inhibition of GST-tagged PTP1B.

Calls of active or inactive are those of the source. No cut-off for these calls is given here.

Sequence of Tyrosine-protein phosphatase non-receptor type 6 (Homo sapiens) (P29350 whole entry): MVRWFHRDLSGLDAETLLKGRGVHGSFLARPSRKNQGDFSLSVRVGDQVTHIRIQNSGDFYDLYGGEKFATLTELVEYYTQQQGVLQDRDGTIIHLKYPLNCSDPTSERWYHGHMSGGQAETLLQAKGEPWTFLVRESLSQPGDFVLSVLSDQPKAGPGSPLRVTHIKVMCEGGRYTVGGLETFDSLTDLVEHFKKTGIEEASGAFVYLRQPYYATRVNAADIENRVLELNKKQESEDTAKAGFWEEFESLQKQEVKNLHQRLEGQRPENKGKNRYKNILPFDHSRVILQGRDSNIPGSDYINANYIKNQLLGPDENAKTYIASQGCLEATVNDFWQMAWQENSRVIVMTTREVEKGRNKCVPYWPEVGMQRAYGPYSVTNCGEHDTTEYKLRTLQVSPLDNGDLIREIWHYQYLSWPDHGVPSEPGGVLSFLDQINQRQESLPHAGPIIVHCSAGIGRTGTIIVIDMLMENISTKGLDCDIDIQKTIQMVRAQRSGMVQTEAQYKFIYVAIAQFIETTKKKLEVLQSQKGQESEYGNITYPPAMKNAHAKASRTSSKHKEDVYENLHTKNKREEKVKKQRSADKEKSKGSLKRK

Turning to `C=C(C)[C@H]1CC2=C(C(=O)OC)C=C(O2)[C@H](C(=C)C)[C@H]2C=C(C(=O)O2)C(OC(=O)CCCCCCCCCCCCCCC)C1` (some centres undefined), the outcome in test [1] was Active. The result in test [2], in test [3] and in test [4] was inactive.

With `C=C(C)[C@H]1C2=CC(C(=O)OC)=C(C[C@H](C(=C)C)[C@@H](O)C(OC(=O)CCCCCCCCCCCCCCC)C3=C[C@H]1OC3=O)O2` (single isomer, unassigned) [LIPIDYL PSEUDOPTERANE A], the result in test [1] was Active. Besides, the outcome in test [2], in test [3] and in test [4] was inactive. Also, the IC50 in test [5] is 113 µM.
